The values that follow are results of earlier work, collected in US20230074252A1, “DOSAGES AND METHODS FOR TREATING PULMONARY ARTERIAL HYPERTENSION WITH RODATRISTAT” (Altavant Sciences GmbH, priority 2020, published 2023).

Usually IC50 stands for the concentration that gives 50% inhibition.

The conditions of series [1]: oral; cited from earlier work.
The conditions of series [2]: human, in vivo; cited from earlier work.
The conditions of series [3]: cited from earlier work; for Change in exposure on coadministration with clopidogrel: selexipag + clopidogrel (moderate inhibitor); for Increase in exposure (AUC) on coadministration with gemfibrozil: selexipag + gemfibrozil (strong CYP2C8 inhibitor); for Increase in exposure on coadministration with ritonavir: selexipag + ritonavir.
The next series addresses T1, CYP2C8 (Homo sapiens, UniProt P10632).
T1 sequence (P10632 1-490): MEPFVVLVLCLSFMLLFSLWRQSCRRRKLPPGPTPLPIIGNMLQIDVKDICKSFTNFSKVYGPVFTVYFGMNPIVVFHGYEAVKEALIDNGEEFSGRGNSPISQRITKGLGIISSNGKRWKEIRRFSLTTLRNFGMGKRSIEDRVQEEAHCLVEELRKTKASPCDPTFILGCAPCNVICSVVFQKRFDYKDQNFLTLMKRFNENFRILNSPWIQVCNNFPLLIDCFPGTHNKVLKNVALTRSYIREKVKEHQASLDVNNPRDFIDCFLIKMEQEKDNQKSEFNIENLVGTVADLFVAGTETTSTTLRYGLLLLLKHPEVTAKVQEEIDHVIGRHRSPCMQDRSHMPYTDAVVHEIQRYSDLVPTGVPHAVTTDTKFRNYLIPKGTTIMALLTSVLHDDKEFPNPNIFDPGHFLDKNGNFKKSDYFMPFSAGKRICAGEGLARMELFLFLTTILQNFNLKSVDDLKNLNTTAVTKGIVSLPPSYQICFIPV
As to conditions: literature; cited from earlier work.

For a further series, the target named is prostacyclin receptor (Homo sapiens, UniProt P43119). As to conditions: cited from earlier work.
prostacyclin receptor, sequence (P43119 whole entry, species assumed): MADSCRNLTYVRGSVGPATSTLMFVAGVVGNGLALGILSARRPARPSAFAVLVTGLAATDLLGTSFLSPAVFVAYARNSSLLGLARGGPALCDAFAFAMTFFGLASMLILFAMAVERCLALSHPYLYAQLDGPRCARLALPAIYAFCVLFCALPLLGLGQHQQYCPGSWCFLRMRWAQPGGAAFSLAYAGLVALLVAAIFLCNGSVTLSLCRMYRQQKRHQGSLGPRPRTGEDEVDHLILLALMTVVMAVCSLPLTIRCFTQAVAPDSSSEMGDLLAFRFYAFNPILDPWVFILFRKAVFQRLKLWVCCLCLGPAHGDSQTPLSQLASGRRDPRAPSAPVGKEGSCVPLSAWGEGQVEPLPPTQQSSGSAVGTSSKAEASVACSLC

In the case of `CCCCC[C@H](O)CC[C@@H]1[C@H]2Cc3cccc(OCC(=O)O)c3C[C@H]2C[C@H]1O.[Na+]` [treprostinil, (1R,2R,3aS,9aS)-[[2,3,3a,4,9,9a-Hexahydro-2-hydroxy-1-[(3S)-3-hydroxyoctyl]-1Hbenz[f]inden-5-yl]oxy]acetic acid monosodium salt], the Bioavailability in series [1] is recorded as ~17%. For the same compound, in series [2], the “Increase in AUC on coadministration with gemfibrozil” value was ~2 fold and the “Increase in Cmax on coadministration with gemfibrozil” value is given as ~2 fold.
As to `CC(C)N(CCCCOCC(=O)NS(C)(=O)=O)c1cnc(-c2ccccc2)c(-c2ccccc2)n1` [selexipag], in series [3], the “Change in exposure on coadministration with clopidogrel” value is listed as “did not impact”, the “Increase in exposure (AUC) on coadministration with gemfibrozil” value is given as 2 fold and the “Increase in exposure on coadministration with ritonavir” value is recorded as ~2 fold.
`O=C1Nc2ccc(Cl)cc2[C@@](C#CC2CC2)(C(F)(F)F)O1` [efavirenz]: the IC50 at CYP2C8 is 4.8 µM.
`CC(C)N(CCCCOCC(=O)O)c1cnc(-c2ccccc2)c(-c2ccccc2)n1` [ACT-333679]: in series [3], the “Change in exposure on coadministration with clopidogrel” value is reported as 2.7 fold, the “Increase in exposure (AUC) on coadministration with gemfibrozil” value is 11 fold and the “Increase in exposure on coadministration with ritonavir” value was < 2 fold. In addition, on prostacyclin receptor, the “Potency relative to selexipag” value is “approximately 37 fold”.
